{"source": "patent US20090018106A1", "about": "“INTRAVENOUS FORMULATIONS OF PYRIDOXAL 5'- PHOSPHATE AND METHOD OF PREPARATION” (Medicure International Inc., priority 2005, published 2009)", "assay_type_in_all_cases": "in vivo, human", "key": {"[1]": {"experiment": "Single intravenous dose escalation of P5P, plasma pharmacokinetics (Examples Two and Three)", "settings": "for Cmax / MRT / Tmax / half-life / AUC(0-inf) / AUC(0-t): both sexes, human; for Cmax / MRT / Tmax / half-life: plasma, iv; for AUC(0-t): read-out: AUC (0-t)", "experimental": "A phase one clinical trial was conducted to compare the pharmacokinetics of intravenously administered P5P and orally administered P5P. The trial was a single dose escalation study.\nFor intravenous administration, P5P was administered by bolus injection under fasting conditions. The following doses of P5P were studied: 1, 5, 10, and 20 mg/kg. 6 subjects were assigned to each dosage group.\nP5P, pyridoxal, and 4-pyridoxic acid were evaluated in both plasma and urine over a 24 hour interval following either intravenous or oral dosing. The results are set out below in Tables 2 and 3.\nMethodology—This was a single-blind, single-dose escalation, non-randomized, 4-phase, non-crossover study designed to evaluate the safety and […] subjects under fasting conditions and to estimate pharmacokinetic parameters of P5P.\nSubjects were assigned to one of the four groups (six subjects per group) under fasting conditions.\nConcentrations of pyridoxal-5′-phosphate (P5P) were measured from the plasma samples collected over a 24-bour interval after dosing in each phase.\nPharmacokinetic parameters: AUCt, AUCinf, Cmax, Tmax, Kel, Thalf, Vd, CL, MRT and F were estimated based on pyridoxal-5′-phosphate (P5P) plasma levels for each subject that was in the final data set.\nThe test product used was a P5P Intravenous Injectable Solution, 50 mg/ml, which was prepared in accordance with the methods of Example 1 (CanAm BioResearch Inc. Canada); Lot No.: LP1459: Manufacturing Date: 12/03. A single 1, 5, 10 or 20 mg/kg dose was given by intravenous injection. The duration of treatment was a single dose.\nSecondary Endpoint—Pharmacokinetic (PK) Parameters—Plasma concentrations of pyridoxal-5′-phosphate (P5P) were measured by a validated analytical method. Based on these concentration levels, AUCt, AUCinf, Cmax, Tmax, Kel, Thalf, Vd, CL, MRT and F were estimated.\nStatistical Methods—Descriptive statistics were calculated by treatments for the estimated pharmacokinetic parameters."}, "[2]": {"experiment": "Cumulative urinary excretion after single intravenous dose of P5P (Example Three)", "settings": "Percent (CV %)", "experimental": "P5P, pyridoxal, and 4-pyridoxic acid were evaluated in both plasma and urine over a 24 hour interval following either intravenous or oral dosing. The results are set out below in Tables 2 and 3. The urinary excretion of the unchanged P5P is negligible. Less than 0.5% of the administered dose was found as P5P in the urine (Table 10). Similarly, very little of the dose was excreted in urine as PAL, between approximately 2 to 3% of the total dose (Table 10). PA represented the largest amounts found in urine. Over a 24-hour interval, between 30% and 52% of the given dose was excreted in urine as 4-pyridoxic acid."}, "[3]": {"experiment": "Once daily intravenous 10 mg/kg P5P for four days, urinary excretion and renal clearance (Example Four)", "settings": "P5P 10 mg/kg iv once daily, 4 days, PAL, mean; for CL renal: human, urine and plasma, iv, 10 mg/kg, read-out: CLR, renal clearance (converted)", "experimental": "Data sets analyzed—Six (6) healthy, adult non-smokers were administered intravenously a single daily dose of 10 mg/kb of P5P for four consecutive days and completed the study. In accordance with the study protocol, data from all subjects who completed the study were used for pharmacokinetic and statistical analysis.\nAnalytical Methods—Plasma and urine samples were used for analysis. P5P, PAL, and PA levels were determined by HPLC/FLD. The quantitation level was 5 ng/mL for plasma and 100 ng/mL for urine. The sample analysis calibration curve range was 5 ng/mL to 5000 ng/mL for plasma and 100 ng/mL to 50,000 ng/mL for urine.\nTotal and Renal Clearance—Total body clearance was estimated for P5P and was calculated as Dose/AUC0-inf."}, "[4]": {"settings": "Group 1, P5P 1 mg/kg single iv, plasma PAL, mean"}, "[5]": {"settings": "Group 2, P5P 5 mg/kg single iv, plasma PAL, mean"}, "[6]": {"settings": "Group 3, P5P 10 mg/kg single iv, plasma PAL, mean"}, "[7]": {"settings": "Group 4, P5P 20 mg/kg single iv, plasma PAL, mean"}, "[8]": {"settings": "1 mg/kg, Group 1, P5P 1 mg/kg single iv, plasma PAL, mean"}, "[9]": {"settings": "5 mg/kg, Group 2, P5P 5 mg/kg single iv, plasma PAL, mean"}, "[10]": {"settings": "10 mg/kg, Group 3, P5P 10 mg/kg single iv, plasma PAL, mean"}, "[11]": {"settings": "20 mg/kg, Group 4, P5P 20 mg/kg single iv, plasma PAL, mean"}, "[12]": {"settings": "ln(pK Parameter) = b0 + b1 * ln (Dose)"}, "[13]": {"settings": "ln(pK Parameter) = b0 + b1 * ln (Dose), single iv 1-20 mg/kg"}}, "note": "Where two headings read alike, the source gives them in different places."}
{"molecule": "Cc1ncc(CO)c(C=O)c1O", "note": "[PAL, pyridoxal]", "values": [{"measurement": "Kel", "setting": "[1]; [4]", "result": 0.198, "unit": "h⁻¹"}, {"measurement": "Kel", "setting": "[1]; [5]", "result": 0.18, "unit": "h⁻¹"}, {"measurement": "Kel", "setting": "[1]; [6]", "result": 0.167, "unit": "h⁻¹"}, {"measurement": "Kel", "setting": "[1]; [7]", "result": 0.177, "unit": "h⁻¹"}, {"measurement": "Cmax", "setting": "[1]; [8]", "result": 591, "unit": "ng/mL"}, {"measurement": "MRT", "setting": "[1]; [8]", "result": 3.7, "unit": "h"}, {"measurement": "Tmax", "setting": "[1]; [8]", "result": 0.46, "unit": "h"}, {"measurement": "half-life", "setting": "[1]; 1 mg/kg, Group 1, P5P 1 mg/kg single iv, plasma PAL, mean, read-out: T½ (converted)", "result": 3.96, "unit": "h"}, {"measurement": "Cmax", "setting": "[1]; [9]", "result": 2480, "unit": "ng/mL"}, {"measurement": "MRT", "setting": "[1]; [9]", "result": 4.4, "unit": "h"}, {"measurement": "Tmax", "setting": "[1]; [9]", "result": 0.71, "unit": "h"}, {"measurement": "half-life", "setting": "[1]; 5 mg/kg, Group 2, P5P 5 mg/kg single iv, plasma PAL, mean, read-out: T½ (converted)", "result": 4.25, "unit": "h"}, {"measurement": "Cmax", "setting": "[1]; [10]", "result": 13300, "unit": "ng/mL"}, {"measurement": "MRT", "setting": "[1]; [10]", "result": 3.68, "unit": "h"}, {"measurement": "Tmax", "setting": "[1]; [10]", "result": 0.42, "unit": "h"}, {"measurement": "half-life", "setting": "[1]; 10 mg/kg, Group 3, P5P 10 mg/kg single iv, plasma PAL, mean, read-out: T½ (converted)", "result": 4.2, "unit": "h"}, {"measurement": "Cmax", "setting": "[1]; [11]", "result": 25900, "unit": "ng/mL"}, {"measurement": "MRT", "setting": "[1]; [11]", "result": 3.98, "unit": "h"}, {"measurement": "Tmax", "setting": "[1]; [11]", "result": 0.32, "unit": "h"}, {"measurement": "half-life", "setting": "[1]; 20 mg/kg, Group 4, P5P 20 mg/kg single iv, plasma PAL, mean, read-out: T½ (converted)", "result": 4.01, "unit": "h"}, {"measurement": "half-life", "setting": "[1]; over all single iv doses of P5P (1-20 mg/kg), read-out: apparent elimination half-life (converted)", "result": "~4", "unit": "h"}, {"measurement": "AUC(0-inf)", "setting": "[1]; [4]", "result": 2070, "unit": "ng·h/mL"}, {"measurement": "AUC(0-t)", "setting": "[1]; [4]", "result": 2020, "unit": "ng·h/mL"}, {"measurement": "AUC(0-inf)", "setting": "[1]; [5]", "result": 10400, "unit": "ng·h/mL"}, {"measurement": "AUC(0-t)", "setting": "[1]; [5]", "result": 10100, "unit": "ng·h/mL"}, {"measurement": "AUC(0-inf)", "setting": "[1]; [6]", "result": 39500, "unit": "ng·h/mL"}, {"measurement": "AUC(0-t)", "setting": "[1]; [6]", "result": 39100, "unit": "ng·h/mL"}, {"measurement": "AUC(0-inf)", "setting": "[1]; [7]", "result": 95200, "unit": "ng·h/mL"}, {"measurement": "AUC(0-t)", "setting": "[1]; [7]", "result": 94400, "unit": "ng·h/mL"}, {"measurement": "Significance of b1, lnAUCi", "setting": "[1]; [12]", "result": "<0.0001"}, {"measurement": "Significance of b1, lnCmax", "setting": "[1]; [12]", "result": "<0.0001"}, {"measurement": "Significance of b1, lnMRT", "setting": "[1]; [12]", "result": 0.5671}, {"measurement": "Significance of b1, lnThalf", "setting": "[1]; [12]", "result": 0.5604}, {"measurement": "Coef. for Dose (b1), lnAUCi", "setting": "[1]; [13]", "result": 1.30}, {"measurement": "Coef. for Dose (b1), lnCmax", "setting": "[1]; [13]", "result": 1.30}, {"measurement": "Coef. for Dose (b1), lnMRT", "setting": "[1]; [13]", "result": 0.02}, {"measurement": "Coef. for Dose (b1), lnThalf", "setting": "[1]; [13]", "result": 0.03}, {"measurement": "Intercept (b0), lnAUCi", "setting": "[1]; [13]", "result": 0.56}, {"measurement": "Intercept (b0), lnCmax", "setting": "[1]; [13]", "result": "−0.72"}, {"measurement": "Intercept (b0), lnMRT", "setting": "[1]; [13]", "result": 1.33}, {"measurement": "Intercept (b0), lnThalf", "setting": "[1]; [13]", "result": 1.33}, {"measurement": "dose relationship of plasma AUCinf and Cmax", "setting": "[1]; single iv P5P 1-20 mg/kg", "result": "increase more than expected based on dose"}, {"measurement": "Cumulative Urinary Excretion as Percent of the Dose", "setting": "[2]; Group 1, dose of P5P 1 mg/1 kg, single iv", "result": "1.93 (101) Percent"}, {"measurement": "Cumulative Urinary Excretion as Percent of the Dose", "setting": "[2]; Group 2, P5P 5 mg/kg single iv", "result": "3.00 (37) Percent"}, {"measurement": "Cumulative Urinary Excretion as Percent of the Dose", "setting": "[2]; Group 3, P5P 10 mg/kg single iv", "result": "2.73 (20) Percent"}, {"measurement": "Cumulative Urinary Excretion as Percent of the Dose", "setting": "[2]; Group 4, dose of P5P, single iv", "result": "2.46 (33) Percent"}, {"measurement": "Ae0-t, total amount excreted in urine", "setting": "[3]; Day 1", "result": 18583712, "unit": "ng"}, {"measurement": "Ae0-t, total amount excreted in urine", "setting": "[3]; Day 4", "result": 21011635, "unit": "ng"}, {"measurement": "CL renal", "setting": "[3]; Day 1", "result": 14.3, "unit": "mL/min"}, {"measurement": "CL renal", "setting": "[3]; Day 4", "result": 12.1, "unit": "mL/min"}]}
